Series [1] deals with liver GSH. The conditions noted are these: cited from earlier work.
In a further series the test system is lung GSH. To be noted: after BSO, before 200 mg/kg naphthalene; cited from earlier work.
Series [2] can be described thus: Biotransformation of naphthalene by rat liver microsomes. It counts as in vitro ADME. From the text: (§1) Determination of Vmax's and Km's for naphthalene oxide production and Vmax's for GSH conjugates and dihydrodiol production in rat microsomes were done in the same way as for the mouse. Sources of data were Buckpitt, et al, 1987, supra, Hesse, S. and Mezger, M., "Involvement of Phenolic Metabolites in the Irreversible Protein-binding of Aromatic Hydrocarbons: Reactive Metabolites of [^14 C]-naphthalene and [^14 C] 1-naphthol Formed by Rat Liver Microsomas", Mol. Pharmacol. 16: 667-675 (1979) which is hereby incorporated by reference, O'Brien et al., 1985, supra, van Bladeren et al., 1985, supra, and Yost, G. S., Buckpitt, A. R., Roth, R. A., and McLemore, T. L., "Mechanisms of Lung Injury by Systematically Administered Chemicals", Toxicol. Appl. Pharmacol. 101: 179-195 (1989), which is hereby incorporated by reference.

Another series concerns Clara cells of the lung. To be noted: similar binding levels in lung and liver; cited from earlier work.
A further series deals with mouse liver. The conditions noted are these: 200 mg/kg naphthalene, cited from earlier work.
Series [3] relates to mouse liver microsomes. The conditions noted are these: cited from earlier work.
Series [4] can be described thus: Biotransformation of naphthalene by mouse lung microsomes. It counts as in vitro ADME. To be noted: mouse, lung microsomes. The method, then: (§2) Biotransformation rates of naphthalene at initial concentrations of 0.05, 0.1 and 1.0 mM by lung and liver microsomes have been determined (O'Brien, et al. (1985), supra, Buckpitt, A. R., Bahnson, L. S., and Franklin, R. B., "Hepatic and Pulmonary Microsomal Metabolism of Naphthalene to Glutathione Adducts: Factors Affecting the Relative Rates of Conjugate Formation", J. Pharmacol. Exp. Ther. 231: 291-300 (1984), which is hereby incorporated by reference), and Buckpitt, A. R., Castagnoli, Jr., N., Nelson, et al., "Stereoselectivity of Naphthalene Epoxidation by Mouse, Rat, and Hamster Pulmonary, Hepatic and Renal Microsomal Enzymes", Drug Metab. Dispos. 15: 491-498 (1987), which is hereby incorporated by reference). Assuming Michaelis-Menten kinetics, fitting s/v vs s was used to provide Vmax and Km values. Since mouse liver produces the 1R,2S- and 1S,2R-naphthalene oxide enantiomers in equal amounts at all substrate concentrations (Buckpitt, et al., 1987, supra), the calculated Vmax was divided by two to give the production rates for each enantiomer.
(§3) For the lung, the biotransformation of naphthalene was modeled as the sum of two separate reactions, each producing a different enantiomer, with the Vmax's summing to the value calculated as described above.

Series [5] has as its system mouse lung microsomes. The description is as above. The series is classed as in vitro ADME. The protocol: as §2, §3
The next series relates to CD-1 mice. The conditions noted are these: po, cited from earlier work.
The subject of series [6] is mouse liver microsomes. The conditions noted are these: Observed; 1 mM naphthalene, 5 mM GSH; cited from earlier work.
Series [7] has as its system liver GSH. To be noted: 200 mg/kg oral, rat, 6 1/2 hours; observed; cited from earlier work.
Series [8] can be described thus: Biotransformation of naphthalene by rat lung microsomes. The series is classed as in vitro ADME.
Source text: as §1

For series [9], the system named is mouse liver microsomes. Nature of the series: Biotransformation of naphthalene by mouse liver microsomes. To be noted: Mouse, Liver. It counts as in vitro ADME. The protocol: as §2
Assay in series [10]: as above
To be noted: mouse, liver microsomes; read-out: Km, N to 1R, 2S NO. It counts as in vitro ADME. The protocol: as §2

A further series relates to mouse lung. To be noted: cited from earlier work; for Covalent binding in the lung: Male Swiss-Webster mouse, ip.
The next series deals with Sherman rats. The conditions noted are these: po, cited from earlier work.
Series [11] has as its system mouse lung microsomes. The conditions noted are these: cited from earlier work.
[12] abbreviates: Liver, Experiment, 0.1 mM naphthalene, 6 minutes.
The mark [13] stands for this setting: Lung, Experiment, 0.1 mM naphthalene, 6 minutes.
[14] abbreviates: [N] 1.0 mM, Buckpitt et al., 1987.

Like-named read-outs stand apart in the source and are kept apart here.

Turning to `CCCCS(=N)(=O)CCC(N)C(=O)O` (stereo not shown) [BSO, buthionine sulfoximine], the “GSH level in liver, percent of control” value with liver GSH [1] (after BSO, before 200 mg/kg naphthalene) was 35%. For the same compound, the “hepatic and pulmonary GSH” value in the series on liver GSH [1] (mice pretreated with BSO) is “hepatic and pulmonary GSH are depleted”. For the same compound, the “GSH depletion, liver versus lung” value with liver GSH [1] (treatment of mice with BSO) is reported as “depletes GSH in the liver more than in the lung”. Moreover, the “GSH level in lung, percent of control” value in the series with lung GSH is given as 86%.
Consider `c1ccc2ccccc2c1` [naphthalene], for which the Km in series [2] (read-out: Km, N to 1R, 2S NO) was 400 µM; in [2] (read-out: Km, N to 1S, 2R NO) it was 800 µM; in series [4] (read-out: Km, N to 1R, 2S NO), 100 µM; in [4] (read-out: Km, N to 1S, 2R NO), 400 µM; in series [8] (read-out: Km, N to 1R, 2S NO) it was 400 µM; in series [8] (read-out: Km, N to 1S, 2R NO), 1540 µM. The Km in series [10] was 307 µM. The site of toxicity result in the series with Clara cells of the lung is “toxicity is limited to the Clara cells of the lung”. The “observed binding level in liver” value was 1069 pmol/mg in the series with mouse liver (with BSO pretreatment) and 255 pmol/mg in the series with mouse liver (without BSO). Further, the Covalently bound in the series with mouse liver microsomes [3] (setting [12]) is 5.8 nmol/mg; with mouse lung microsomes [11] (setting [13]) it was 7.4 nmol/mg. Further, the values for the Diol formed in the series on mouse liver microsomes [3] (setting [12]) and with mouse lung microsomes [11] (setting [13]) were 11.9 nmol/mg and 4.2 nmol/mg, respectively. For the same compound, the NOH formed in the series on mouse liver microsomes [3] (setting [12]) was 3.5 nmol/mg; in the series with mouse lung microsomes [11] (setting [13]), 21.2 nmol/mg. In addition, the “1R,2S- and 1S,2R-naphthalene oxide enantiomers produced” value with mouse liver microsomes [3] (mouse liver, all substrate concentrations) is “equal amounts”. Moreover, the “Vmax, N to 1R, 2S NO” value turned out to be 9.0 nmol/mg/min in the series with mouse lung microsomes [5] and 6.95 nmol/mg/min in the series with mouse liver microsomes [9]. Besides, the “Vmax, N to 1S, 2R NO” value in the series with mouse lung microsomes [5] was found to be 1.1 nmol/mg/min; in the series on mouse liver microsomes [9], 6.95 nmol/mg/min. Besides, the LD50 was 710 mg/kg in the series on CD-1 mice (female CD-1 mice), 533 mg/kg with CD-1 mice (male CD-1 mice), 2400 mg/kg with Sherman rats (female Sherman rats) and 2200 mg/kg in the series on Sherman rats (male Sherman rats). Also, in the series with mouse liver microsomes [6], the “1,2 dihydrodiol formation rate” value is 2.43 nmol/mg/min. Also, the “Conjugate 2 formation rate” value with mouse liver microsomes [6] is 3.64 nmol/mg/min. Further, in the series with mouse liver microsomes [6], the “Conjugates 1 and 3 formation rate” value was 3.56 nmol/mg/min. Also, the “liver GSH, percent of the initial concentration” value with liver GSH [7] is 17%. The “experimental covalent binding in lung” value in the series on mouse lung (200 mg/kg naphthalene, with BSO pretreatment) is 411 pmol/mg; with mouse lung (200 mg/kg naphthalene, without BSO), 137 pmol/mg. Besides, the “experimental increase in lung covalent binding by BSO” value in the series with mouse lung (200 mg/kg naphthalene) is recorded as 3.0 factor. Besides, the “Covalent binding in the lung” value with mouse lung (300 mg/kg) was 675 pmol/mg; in the series with mouse lung (400 mg/kg), 912 pmol/mg. Besides, the “observed ratio of conjugates of 1R, 2S and 1S, 2R naphthalene oxide” value with mouse lung microsomes [11] ([N] 0.015 mM, Buckpitt and Franklin, 1989) is reported as 30; with mouse lung microsomes [11] (setting [14]) it was 10. The observed v in the series with mouse lung microsomes [11] ([N] 0.05 mM, O'Brien et al., 1985) is on record as 1.33 nanomoles of product/mg micros; in the series with mouse lung microsomes [11] ([N] 0.10 mM, Buckpitt et al., 1984), 6.01 nanomoles of product/mg micros; with mouse lung microsomes [11] (setting [14]), 8.3 nanomoles of product/mg micros.

The values are drawn from patent US5612188A, “Automated, multicompartmental cell culture system” (Cornell Research Foundation, Inc., priority 1994, dated 1997).
